Source: ChEMBL document CHEMBL1151894, “Novel immunoconjugates comprised of streptonigrin and 17-amino-geldanamycin attached via a dipeptide-p-aminobenzyl-amine linker system” (Bioorg Med Chem Lett, 2009)

Columns and labels:
Format in all cases: functional, cell-based
[1] = test system: KARPAS-299; experiment: Cytotoxicity against CD30 expressing and CD70 deficient human KARPAS299 cells after 96 hrs by resazurin conversion assay; settings: KARPAS-299, 96 h
[2] = test system: CAKI-1; experiment: Cytotoxicity against CD30 deficient and CD70 expressing human Caki1 cells after 96 hrs by resazurin conversion assay; settings: CAKI-1, 96 h
[3] = Cytotoxicity against CD30 expressing and CD70 deficient human L540cy cells after 96 hrs by resazurin conversion assay

Compound `COC1=C(N)C(=O)c2nc(-c3nc(C(=O)O)c(C)c(-c4ccc(OC)c(OC)c4O)c3N)ccc2C1=O` [STREPTONIGRIN] has an IC50 [1] of 0.4 nM, an IC50 [2] of 0.4 nM and an IC50 [3] of 0.8 nM.
